From US8288423B2, “FXa inhibitors with cyclic amidines as P4 subunit, processes for their preparations, and pharmaceutical compositions and derivatives thereof” (Legochem Bioscience Ltd., priority 2007, dated 2012)

Key:
factor Xa = target: T1, factor Xa (Homo sapiens, UniProt P00742); experiment: Inhibiting activity of factor Xa inhibitor (chromogenic substrate S-2765); format: biochemical; conditions: calculated from IC50 by Equation 1, Km 125 μM; S-2765 substrate, pH 7.8, 37° C.; read-out: Ki (nM), factor Xa inhibition constant
T1 construct: purchased Enzyme Research Laboratories
Protocol: Relative rate of hydrolysis (as compared to control group without inhibition) was plotted versus logarithm of the concentration of the oxazolidinone derivative with a cyclic amidine represented by Chemical Formula (1) according to the invention, to obtain the concentration of the inhibitor for 50% decrease in the rate of hydrolysis of the substrate.
The inhibition constant can be obtained by spectrophotometry whereby the color development is determined as a function of time, after being reacted with a specific substrate which develops color upon hydrolysis caused by action of factor Xa.
For the inhibitor solution, the inhibitor compound according to the present invention was diluted with dimethylsulfoxide (DMSO) in 10 mM, and then further diluted with third-distilled water (finally 10% DMSO solution), and the solution (10 μL) was added to each well. […] The substrate solution (20 μL) thus prepared was added to each well.
Kinetic analysis of the reaction was performed by a kinetic plate reader (Molecular Devices, Spectramax 190) at 37° C. for 20 minutes.
Relative rate of hydrolysis (compared to control group without inhibition) versus logarithm of the oxazolidinone derivative with a cyclic amidine group (Chemical Formula I) was plotted to obtain the concentration of the inhibitor to decrease the rate of hydrolysis of the substrate by 50%. GraFit (version 5.0.12) program for statistical process purchased from Erithacus Software was employed.
When inhibition constant Ki is calculated, it can be calculated according to Equation (1).

plasma = experiment: Measurement of aPTT (activated partial thromboplastin time) in plasma; format: biochemical; design: unit not given here; conditions: STA-PTT, CaCl2, 37° C., unit not given
Protocol: The effect of oxazolidinone derivatives with cyclic amidines represented by Chemical Formula (1) according to the invention on blood coagulation was compared by measuring PT (prothrombin time) and aPTT (activated Partial Thromboplastin Time). The procedure of measurement is described below. A solution (5 μL) of the oxazolidinone derivative with cyclic amidine group represented by Chemical Formula (1) according to the invention (in a various concentration gradient, 5% DMSO solution) was added to the plasma ([…]), and the reaction was carried out at 37° C. for 2 minutes. STA-PTT (Diagnostica Stago) (50 μL) was then added thereto. After the reaction at 37° C. for additional 5 minutes, 25 mM CaCl2 (50 μL) was added thereto, and the duration for plasma coagulation was measured. The duration for plasma coagulation was determined as the point when the absorbance at 340 nm reaches 0.1.

Citrated plasma = experiment: Measurement of PT (prothrombin time) in citrated plasma; format: biochemical; conditions: STA-Neoplastine, 37° C., unit not given (2×PT value)
Protocol: The effect of oxazolidinone derivatives with cyclic amidines represented by Chemical Formula (1) according to the invention on blood coagulation was compared by measuring PT (prothrombin time) and aPTT (activated Partial Thromboplastin Time). The procedure of measurement is described below. Citrated plasma was purchased from Daejeon-Chungnam Blood Institute (located at Daejeon, Korea). A compound solution (5 μL) according to the invention (in a various concentration gradient, 5% DMSO solution) was added to the plasma ([…]), and the reaction was carried out at 37° C. for 5 minutes. STA-Neoplastine (Diagnostica Stago) (100 μL) was then added thereto, and the duration for plasma coagulation was measured. The duration for plasma coagulation is determined as the point when the absorbance at 340 nm reaches 0.1.

thrombus formation = experiment: % inhibition against thrombus formation, arteriovenous shunt model in white rats; format: in vivo, white rats (male Sprague Dawley); design: concentration or dose not given beside the values; conditions: orally administered 1 hour before opening of the shunt; 15 minutes circulation; versus control group
Protocol: 3) Determination of % Inhibition Against Thrombus Formation by Means of Arteriovenous Shunt Model ([…]) in White Rats Antithrombotic effect of the compounds according to the present invention was evaluated by using arteriovenous shunt model in white rats. The animals used were male Sprague Dawleys with the body weight of 200-250 g. For one day before the experiment, the animals were fasted. Five to six animals were used for each test group. The compound of Example was orally administered 1 hour before opening of the shunt. The rats were anesthetized by abdominal administration of Rompun (Bay HealthCare) and Chloral hydrate or urethane in an amount of 12 and 50 mg per kg of the body weight. Into the left carotid artery and right jugular vein of the white rat, a polyethylene(PE)-60 tubing filled with physiological saline was inserted and secured. Both ends of individual PE tubing were connected to a silicone tubing having a length of 5 cm in which a cotton thread have been incorporated diagonally, and the shunt was open to provide circulation for 15 minutes. The shunt was then compressed by using jaws, and the cotton thread was carefully removed and the thrombus generated was weighed. The % inhibition of thrombus formation was calculated by using the weight of thrombus obtained from white rats of the control group to which a solution of oral administration was administered.

T1 sequence (P00742 235-488 limits assumed): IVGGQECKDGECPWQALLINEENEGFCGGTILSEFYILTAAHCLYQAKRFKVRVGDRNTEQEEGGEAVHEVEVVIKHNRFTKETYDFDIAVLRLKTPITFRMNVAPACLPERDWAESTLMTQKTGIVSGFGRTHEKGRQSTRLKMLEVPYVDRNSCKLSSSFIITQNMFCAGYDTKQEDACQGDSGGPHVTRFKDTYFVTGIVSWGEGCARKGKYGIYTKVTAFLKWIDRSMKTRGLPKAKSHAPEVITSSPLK
T1 sequence (P00742 41-179 partner limits assumed): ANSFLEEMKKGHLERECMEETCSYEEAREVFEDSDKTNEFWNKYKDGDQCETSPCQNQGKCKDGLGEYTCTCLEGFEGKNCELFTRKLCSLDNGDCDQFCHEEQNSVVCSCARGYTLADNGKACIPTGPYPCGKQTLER

Compound `O=C(NC[C@H]1CN(c2ccc(C3=NCCCN3)cc2)C(=O)O1)c1ccc(Cl)s1` [Compound 106, 5-chlorothiophene-2-carboxylic acid {(S)-2-oxo-3-[4-(1,4,5,6-tetrahydropyrimidine-2-yl)-phenyl]-oxazolidin-5-ylmethyl}-amide] has a Ki (factor Xa) of 13.1 nM, an APTT (plasma) of 0.55 and a PT (Citrated plasma) of 0.09. The “% Inhibition (of thrombus formation)” value (thrombus formation) was 0%.

Compound `CN1CCN=C1c1ccc(N2C[C@H](CNC(=O)c3ccc(Br)s3)OC2=O)cc1` [Compound 108, 5-bromothiophene-2-carboxylic acid {(S)-3-[4-(1-methyl-4,5-dihydro-1H-imidazol-2-yl)-phenyl]-2-oxo-oxazolidin-5-ylmethyl}-amide] has a Ki (factor Xa) of 2.42 nM, an APTT (plasma) of 0.15 and a PT (Citrated plasma) of 0.03. The “% Inhibition (of thrombus formation)” value (thrombus formation) was 30%.

`CCN1CCN=C1c1ccc(N2C[C@H](CNC(=O)c3ccc(Br)s3)OC2=O)cc1` [Compound 109, 5-bromothiophene-2-carboxylic acid {(S)-3-[4-(1-ethyl-4,5-dihydro-1H-imidazol-2-yl)-phenyl]-2-oxo-oxazolidin-5-ylmethyl}-amide] was tested, and the Ki (factor Xa) was 4.67 nM and the “% Inhibition (of thrombus formation)” value (thrombus formation) was 26%.

With `CCN1CCN=C1c1ccc(N2C[C@H](CNC(=O)c3ccc(Cl)s3)OC2=O)cc1F` [Compound 110] the Ki (factor Xa) was 4.4 nM, the APTT (plasma) was 0.19 and the PT (Citrated plasma) was 0.03. The “% Inhibition (of thrombus formation)” value (thrombus formation) was 38%.

`CN1CCCN=C1c1ccc(N2C[C@H](CNC(=O)c3ccc(Cl)s3)OC2=O)cc1F` [Compound 111, 5-chloro-thiophene-2-carboxylic acid {(S)-3-[3-fluoro-4-(1-methyl-1,4,5,6-tetrahydropyrimidin-2-yl)-phenyl]-2-oxo-oxazolidin-5-ylmethyl}-amide] showed a Ki (factor Xa) of 10.5 nM, an APTT (plasma) of 0.28 and a PT (Citrated plasma) of 0.03. For the same compound, the “% Inhibition (of thrombus formation)” value (thrombus formation) was 49%.

`CCN1CCN=C1c1ccc(N2C[C@H](CNC(=O)c3ccc(Cl)s3)OC2=O)cc1Cl` [Compound 112, 5-chlorothiophene-2-carboxylic acid {(S)-3-[3-chloro-4-(1-ethyl-4,5-dihydro-1H-imidazol-2-yl)-phenyl]-2-oxo-oxazolidin-5-ylmethyl}-amide] gave a Ki (factor Xa) of 4.05 nM, an APTT (plasma) of 0.19 and a PT (Citrated plasma) of 0.05. The “% Inhibition (of thrombus formation)” value (thrombus formation) was 26%.

`CN1CCCN=C1c1ccc(N2C[C@H](CNC(=O)c3ccc(Cl)s3)OC2=O)cc1Cl` [Compound 113, 5-chloro-thiophene-2-carboxylic acid {(S)-3-[3-chloro-4-(1-methyl-1,4,5,6-tetrahydropyrimidin-2-yl)-phenyl]-2-oxo-oxazolidin-5-ylmethyl}-amide] showed a Ki (factor Xa) of 9.19 nM, an APTT (plasma) of 0.35 and a PT (Citrated plasma) of 0.11. For the same compound, the “% Inhibition (of thrombus formation)” value (thrombus formation) was 53%.

Work on `CC1=NCCN1c1ccc(N2C[C@H](CNC(=O)c3ccc(Cl)s3)OC2=O)cc1` [Compound 114] yielded a Ki (factor Xa) of 2.45 nM, an APTT (plasma) of 0.12 and a PT (Citrated plasma) of 0.03. For the same compound, the “% Inhibition (of thrombus formation)” value (thrombus formation) was 41%.

With `O=C(NC[C@H]1CN(c2ccc(N3C=NCC3)cc2)C(=O)O1)c1ccc(Cl)s1` [Compound 115] the Ki (factor Xa) was 1.29 nM, the APTT (plasma) was 2.61 and the PT (Citrated plasma) was 0.34.

`CCC1=NCCN1c1ccc(N2C[C@H](CNC(=O)c3ccc(Cl)s3)OC2=O)cc1` [Compound 116] showed a Ki (factor Xa) of 3.46 nM, an APTT (plasma) of 0.18 and a PT (Citrated plasma) of 0.05. For the same compound, the “% Inhibition (of thrombus formation)” value (thrombus formation) was 65%.

For `O=C(NC[C@H]1CN(c2ccc(N3CCN=C3C3CCC3)cc2)C(=O)O1)c1ccc(Cl)s1` [Compound 118], the Ki (factor Xa) was 69.9 nM and the PT (Citrated plasma) was 0.58.

With `CC(C)CC1=NCCN1c1ccc(N2C[C@H](CNC(=O)c3ccc(Cl)s3)OC2=O)cc1` [Compound 119] the Ki (factor Xa) was 3.7 nM, the PT (Citrated plasma) was 0.03 and the “% Inhibition (of thrombus formation)” value (thrombus formation) was 4%.

In the case of `C=C(C)C1=NCCN1c1ccc(N2C[C@H](CNC(=O)c3ccc(Cl)s3)OC2=O)cc1` [Compound 120], the Ki (factor Xa) is reported as 27.9 nM, the PT (Citrated plasma) is reported as 0.31 and the “% Inhibition (of thrombus formation)” value (thrombus formation) is reported as 37%.

For `CC(C)=CC1=NCCN1c1ccc(N2C[C@H](CNC(=O)c3ccc(Cl)s3)OC2=O)cc1` [Compound 121], the Ki (factor Xa) was 1.81 nM, the PT (Citrated plasma) was 0.06 and the “% Inhibition (of thrombus formation)” value (thrombus formation) was 35%.

Work on `O=C(NC[C@H]1CN(c2ccc(N3CCN=C3c3ccoc3)cc2)C(=O)O1)c1ccc(Cl)s1` [Compound 124] yielded a Ki (factor Xa) of 1.71 nM, an APTT (plasma) of 0.26 and a PT (Citrated plasma) of 0.07. The “% Inhibition (of thrombus formation)” value (thrombus formation) was 52%.

In the case of `O=C(NC[C@H]1CN(c2ccc(N3CCN=C3C3CCOC3)cc2)C(=O)O1)c1ccc(Cl)s1` (stereo partly shown) [Compound 125], the Ki (factor Xa) is reported as 2.33 nM, the PT (Citrated plasma) is reported as 0.05 and the “% Inhibition (of thrombus formation)” value (thrombus formation) is reported as 42%.

`O=C(NC[C@H]1CN(c2ccc(N3CCN=C3c3ccncc3)cc2)C(=O)O1)c1ccc(Cl)s1` [Compound 126] was tested, and the Ki (factor Xa) was 12.8 nM, the PT (Citrated plasma) was 0.16 and the “% Inhibition (of thrombus formation)” value (thrombus formation) was 22%.

In the case of `O=C(NC[C@H]1CN(c2ccc(N3CCN=C3c3cccnc3)cc2)C(=O)O1)c1ccc(Cl)s1` [Compound 127], the Ki (factor Xa) is reported as 6.14 nM, the PT (Citrated plasma) is reported as 0.12 and the “% Inhibition (of thrombus formation)” value (thrombus formation) is reported as 27%.

For `O=C(NC[C@H]1CN(c2ccc(N3CCN=C3c3ccccn3)cc2)C(=O)O1)c1ccc(Cl)s1` [Compound 128], the Ki (factor Xa) was 13.9 nM, the PT (Citrated plasma) was 0.95 and the “% Inhibition (of thrombus formation)” value (thrombus formation) was 22%.

For `Cc1ccc(C2=NCCN2c2ccc(N3C[C@H](CNC(=O)c4ccc(Cl)s4)OC3=O)cc2)cc1` [Compound 129], the Ki (factor Xa) was 0.92 nM, the PT (Citrated plasma) was 0.30 and the “% Inhibition (of thrombus formation)” value (thrombus formation) was 0%.

With `Cc1csc(C2=NCCN2c2ccc(N3C[C@H](CNC(=O)c4ccc(Cl)s4)OC3=O)cc2)n1` [Compound 130] the Ki (factor Xa) was 8.6 nM, the PT (Citrated plasma) was 0.94 and the “% Inhibition (of thrombus formation)” value (thrombus formation) was 15%.

`Cc1ccc(C2=NCCN2c2ccc(N3C[C@H](CNC(=O)c4ccc(Cl)s4)OC3=O)cc2)s1` [Compound 131] showed a Ki (factor Xa) of 0.69 nM, an APTT (plasma) of 0.39 and a PT (Citrated plasma) of 0.08. The “% Inhibition (of thrombus formation)” value (thrombus formation) was 0%.

`O=C(NC[C@H]1CN(c2ccc(N3CCN=C3c3ccc(Cl)s3)cc2)C(=O)O1)c1ccc(Cl)s1` [Compound 132] showed a Ki (factor Xa) of 1.09 nM, an APTT (plasma) of 0.88 and a PT (Citrated plasma) of 0.29. For the same compound, the “% Inhibition (of thrombus formation)” value (thrombus formation) was 60%.

In the case of `O=C(NC[C@H]1CN(c2ccc(N3CCN=C3c3cccc(Cl)c3)cc2)C(=O)O1)c1ccc(Cl)s1` [Compound 133], the Ki (factor Xa) is reported as 1.21 nM, the PT (Citrated plasma) is reported as 0.26 and the “% Inhibition (of thrombus formation)” value (thrombus formation) is reported as 44%.

With `O=C(NC[C@H]1CN(c2ccc(N3CCN=C3c3ccc(C(F)(F)F)cc3)cc2)C(=O)O1)c1ccc(Cl)s1` [Compound 134] the Ki (factor Xa) was 4.01 nM, the PT (Citrated plasma) was 0.36 and the “% Inhibition (of thrombus formation)” value (thrombus formation) was 4%.

In the case of `COC(=O)C1(C2=NCCN2c2ccc(N3C[C@H](CNC(=O)c4ccc(Cl)s4)OC3=O)cc2)CC1` [Compound 135], the Ki (factor Xa) is reported as 31.5 nM, the APTT (plasma) is reported as 1.34 and the PT (Citrated plasma) is reported as 0.15. For the same compound, the “% Inhibition (of thrombus formation)” value (thrombus formation) was 62%.

For `COC(=O)C(C)(C)C1=NCCN1c1ccc(N2C[C@H](CNC(=O)c3ccc(Cl)s3)OC2=O)cc1` [Compound 136], the Ki (factor Xa) was 1.78 nM, the PT (Citrated plasma) was 0.10 and the “% Inhibition (of thrombus formation)” value (thrombus formation) was 31%.

In the case of `O=C(NC[C@H]1CN(c2ccc(N3CCN=C3c3ccc(Cl)s3)cc2)C(=O)O1)c1ccc(Br)s1` [Compound 140], the Ki (factor Xa) is reported as 2.63 nM, the PT (Citrated plasma) is reported as 0.24 and the “% Inhibition (of thrombus formation)” value (thrombus formation) is reported as 40%.
